Assay results reported in publication PMC4827351 (Chemical Science, 2015).

Key:
[1] = Negative-staining TEM of peptide self-assembly; type: physicochemical; details: for fibrils (TEM), time course of trypsin treatment: room temperature, 10 mM sodium phosphate pH 7.4
Experimental: (§1) Fig. 3 TEM analysis of HD6 self-assembly and SEM analysis of bacterial agglutination. Top row: transmission electron micrographs of 10 mM sodium phosphate pH 7.4 (control), 0.4 μM trypsin (control), 20 μM proHD6 in the absence and presence of 0.4 μM trypsin, and 20 μM HD6. All the samples were incubated at room temperature for 1 h. Scale bar = 100 nm. TEM images obtained using 10 mM Tris-maleate pH 6.4 are presented in Fig. S7. ^† Middle row: scanning electron micrographs of E. coli ATCC 25922 treated with 50 mM Tris-maleate pH 6.4 (control), 0.4 μM APMSF-inactivated trypsin (control), 3 μM proHD6, 3 μM trypsin-cleaved proHD6, or 3 μM HD6. Trypsin-cleaved proHD6 was prepared prior to incubation with the bacteria and the residual enzymatic activity was inhibited by APMSF (Experimental section). Following a 30 min incubation, the bacterial suspensions were centrifuged, fixed, and analyzed by SEM. Scale bar = 20 μm. Bottom row: SEM of L. monocytogenes ATCC19115 treated under the same conditions as in the middle row. Scale bar = 20 μm.
The samples for TEM were prepared by following a literature protocol.[15] For each sample, a 5 μL aliquot of peptide solution (20 μM in 10 mM sodium phosphate pH 7.4 or 10 mM Tris-maleate pH 6.4) was placed onto the carbon-coated surface of a copper grid (400 square mesh, Electron Microscopy Sciences). After 1 min, the grid was washed with a 5 μL aliquot of Milli-Q water, stained with a 5 μL aliquot of 2% uranyl acetate (UA, Electron Microscopy Sciences) in Milli-Q water three times, and air-dried for at least 15 min before imaging. A FEI Technai Spirit Transmission Electron Microscope was employed for all TEM imaging (W.M. Keck Microscopy Facility, Whitehead Institute, Cambridge, MA). TEM images were obtained with at least two independently prepared peptides and representative images are presented.
Figure S7. TEM analysis of trypsin-catalyzed proteolysis of proHD6 in Tris-maleate buffer.
Transmission electron micrographs of 10 mM Tris- maleate pH 6.4 (control), 0.4 µM trypsin (control), 20 µM proHD6 in the absence and presence of 0.4 µM trypsin, and 20 µM HD6. All samples were incubated at room temperature for 1 h. Scale bar = […].
Figure S8. Time course of trypsin-catalyzed proteolysis of proHD6 monitored by TEM.
Transmission electron micrographs of 20 µM proHD6 after treatment with 0.4 µM trypsin at room temperature for the indicated time. All the samples were in 10 mM sodium phosphate […]

[2] = tested on: L. monocytogenes ATCC19115; experiment: SEM analysis of bacterial agglutination; type: cell-based, Listeria monocytogenes; details: 3 µM proHD6 treated with trypsin before incubation (trypsin inactivated with APMSF), 30 min, 50 mM Tris-maleate pH 6.4
Experimental: as §1
Bacteria were grown aerobically at 37 °C overnight in LB media. The next morning the strains were subcultured and grown to mid-logarithmic phase in LB media. […]

[3] = tested on: L. monocytogenes ATCC 19115 invasion of human T84 colon epithelial cells; experiment: Listeria invasion assay; type: cell-based, Listeria monocytogenes; details: proHD6 ≤10 µM, no trypsin, bacteria pre-incubated with peptide 30 min at room temperature, n = 3
Experimental: Fig. 5 Listeria invasion assays for native and cleaved proHD6. Invasion of human T84 colon epithelial cells by L. monocytogenes ATCC 19115 pre-treated with proHD6 in the absence and presence of 0.4 μM trypsin or HD6 (control). The bacteria (2 × 10^6 CFU mL^–1) were incubated with the indicated peptides for 30 min prior to the infection of the T84 cells (mean ± SDM, n = 3).
Concentrated (20×, 10 μL) solutions of HD6 and proHD6 were prepared in sterile Milli-Q water (0, 50, 100, and 200 μM). For conditions that required trypsin, a 1 mg mL^–1 stock solution of TPCK-treated trypsin (Worthington) in sterile Milli-Q water was added to the 20× proHD6 solutions to yield a final trypsin concentration of 0.01 mg mL^–1. A 190 μL aliquot of the diluted bacterial culture was added to each […] peptide solution and the resulting mixtures were incubated at room temperature for 30 min. The invasion assays were then performed by following a literature protocol.[15],[50] All invasion assays were conducted with at least two independently prepared and purified samples of each peptide and in three independent trials and the resulting averages with standard deviations are reported.

## EPLQAEDDPLQAKAYEADAQEQRGANDQDFAVSFAEDASSSLRALGSTRAFTCHCRRSCYSTEYSYGTCTVMGINHRFCCL (disulfide (positions not given here)) [proHD6, 81-residue propeptide of human α-defensin 6, recombinant, from His6-SUMO-proHD6]
[1]; 20 µM peptide, 10 mM sodium phosphate pH 7.4 or 10 mM Tris-maleate pH 6.4, room temperature 1 h, no trypsin
  formation of higher-order oligomers (TEM): no evidence for the formation of higher-order oligomers
[1]; 20 µM proHD6 + 0.4 µM trypsin, 5 min
  fibrils (TEM), time course of trypsin treatment: relatively short fibrils
[1]; 20 µM proHD6 + 0.4 µM trypsin, 60 min
  fibrils (TEM), time course of trypsin treatment: closely resembled those of mature HD6
[1]; 20 µM proHD6 + 0.4 µM trypsin, room temperature 1 h, 10 mM sodium phosphate pH 7.4 or 10 mM Tris-maleate pH 6.4
  formation of fibrils (TEM) after addition of trypsin: fibril-like features comparable to those observed for the mature HD6 peptide
[2]
  bacterial agglutination (SEM), trypsin-cleaved: same trypsin-dependent activity
[3]
  L. monocytogenes invasion into human intestinal epithelial cells: did not impair
